Results on 19 molecules are retold here after patent publication US12281122B1, “PI3K inhibitors” (Cogent Biosciences, Inc., priority 2023, dated 2025).

SMILES strings stand for the structures. Where only a bound is given, the exact number is not on record here.

Assay [1] deals with SKBR3 (PI3Kα-Wild Type) cell line. As to the kind of experiment: HTRF phospho-AKT(S473) cell assay in SKBR3 cells. In kind it is cell-based, human. An outline of the steps:
(§1)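 HTRF read-out of phospho-AKT(S473) in lysates gave IC50 values after 2 h compound exposure at 37° C. Dose series was 12 points at 1:3, topping at 5 μM for T47D and 10 μM for SKBR3. Only SKBR3 received 70 ng/ml PDGF-BB during the last 15 minutes.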

Assay [2] has as its system T47D (PI3Kα-H1047R) cell line. As to the kind of experiment: HTRF phospho-AKT(S473) cell assay in T47D cells. Type of assay: cell-based, human. The gist of the method: as §1
(In general: In TR-FRET formats the signal depends on donor and acceptor labels being close together.)

The mark [3] stands for this setting: Homo sapiens, SK-BR-3; HTRF phospho-AKT(S473), SKBR3 (PI3Kα-Wild Type) cells, 2 hours compound incubation, PDGF-BB stimulated.
Setting [4] is: Homo sapiens; HTRF phospho-AKT(S473), T47D (PI3Kα-H1047R) cells, 2 hours compound incubation.
Setting [5] is: Homo sapiens, SK-BR-3; SKBR3 (PI3Kα-Wild Type) cells, HTRF phospho-AKT(S473), 2 hours compound incubation, PDGF-BB stimulated.
Setting [6] is: Homo sapiens; T47D (PI3Kα-H1047R) cells, HTRF phospho-AKT(S473), 2 hours compound incubation.

What is called IC50 is the concentration needed to halve the response being measured. `Cc1cc([C@@H](C)Nc2ccc(Cl)nc2C(=O)NS(C)(=O)=O)c2nc(N3CCC4(CCOCC4)CC3)n(C)c(=O)c2c1` [Compound 690, (R)-6-chloro-3-((1-(3,6-dimethyl-4-oxo-2-(3-oxa-9-azaspiro[5.5]undecan-9-yl)-3,4-dihydroquinazolin-8-yl)ethyl)amino)-N-(methylsulfonyl) picolinamide]: the IC50 in assay [1] (setting [3]) was 1 to 5 µM; in assay [2] (setting [4]), less than 0.25 µM.
The corresponding values for `COc1cc(C2CCN(c3nc4c([C@@H](C)Nc5ccc(Cl)nc5C(=O)NS(C)(=O)=O)cc(C)cc4c(=O)n3C)CC2)ccn1` [Compound 640, (R)-6-chloro-3-((1-(2-(4-(2-methoxypyridin-4-yl)piperidin-1-yl)-3,6-dimethyl-4-oxo-3,4-dihydroquinazolin-8-yl)ethyl)amino)-N-(methylsulfonyl) picolinamide] are no less than 5 µM and 0.25 to 0.5 µM.
For the molecule `COc1nccnc1C1CCN(c2nc3c([C@@H](C)Nc4ccc(Cl)nc4C(=O)NS(C)(=O)=O)cc(C)cc3c(=O)n2C)CC1` [Compound 563, (R)-6-chloro-3-((1-(2-(4-(3-methoxypyrazin-2-yl)piperidin-1-yl)-3,6-dimethyl-4-oxo-3,4-dihydroquinazolin-8-yl)ethyl)amino)-N-(methylsulfonyl) picolinamide], the IC50 is no less than 5 µM in assay [1] (setting [3]) and 0.25 to 0.5 µM in assay [2] (setting [4]).
For `[2H]C([2H])([2H])n1nc([C@H]2[C@@H]3CN(c4nc5c([C@@H](C)Nc6ccc(Cl)nc6C(=O)NS(C)(=O)=O)cc(C)cc5c(=O)n4C)C[C@@H]32)c(Cl)c1C` [Compound 661, 6-chloro-3-(((R)-1-(2-((1R,5S,6R)-6-(4-chloro-5-methyl-1-(methyl-d3)-1H-pyrazol-3-yl)-3-azabicyclo[3.1.0]hexan-3-yl)-3,6-dimethyl-4-oxo-3,4-dihydroquinazolin-8-yl)ethyl)amino)-N-(methylsulfonyl) picolinamide] the same measures were no less than 5 µM and 0.25 to 0.5 µM.
Regarding `Cc1cc([C@@H](C)Nc2ccc(Cl)nc2C(=O)NS(C)(=O)=O)c2nc(N3CCC(n4nc(C)cc4F)CC3)n(C)c(=O)c2c1` [Compound 490, (R)-6-chloro-3-((1-(2-(4-(5-fluoro-3-methyl-1H-pyrazol-1-yl)piperidin-1-yl)-3,6-dimethyl-4-oxo-3,4-dihydroquinazolin-8-yl)ethyl)amino)-N-(methylsulfonyl) picolinamide], the values for the IC50 in assay [1] (setting [3]) and in assay [2] (setting [4]) were no less than 5 µM and 0.25 to 0.5 µM, respectively.
On to `Cc1cc([C@@H](C)Nc2ccc(Cl)nc2C(=O)NS(C)(=O)=O)c2nc(N3CCC[C@@H](Oc4ccc(C)nc4)C3)n(C)c(=O)c2c1` [Compound 368, 6-chloro-3-(((R)-1-(3,6-dimethyl-2-((R)-3-((6-methylpyridin-3-yl)oxy)piperidin-1-yl)-4-oxo-3,4-dihydroquinazolin-8-yl)ethyl)amino)-N-(methylsulfonyl) picolinamide], for which the IC50 in assay [1] (setting [5]) was no less than 5 µM; in assay [2] (setting [6]), 0.25 to 0.5 µM.
`Cc1cc([C@@H](C)Nc2ccc(Cl)nc2C(=O)NS(C)(=O)=O)c2nc(N3CC[C@@H](c4ccnc(C)n4)C3)n(C)c(=O)c2c1` (relative stereo) [Compound 600, 6-chloro-3-(((R)-1-(3,6-dimethyl-2-((R*)-3-(2-methylpyrimidin-4-yl)pyrrolidin-1-yl)-4-oxo-3,4-dihydroquinazolin-8-yl)ethyl)amino)-N-(methylsulfonyl) picolinamide]: the IC50 in assay [1] (setting [3]) fell in the range of 1 to 5 µM; in assay [2] (setting [4]), 0.25 to 0.5 µM.
For `Cc1cc([C@@H](C)Nc2ccc(Cl)nc2C(=O)NS(C)(=O)=O)c2nc(N3C[C@@H]4[C@H](C3)[C@H]4n3cc(C(F)(F)F)cn3)n(C)c(=O)c2c1` [Compound 741, 6-chloro-3-(((R)-1-(3,6-dimethyl-4-oxo-2-((1R,5S,6S)-6-(4-(trifluoromethyl)-1H-pyrazol-1-yl)-3-azabicyclo[3.1.0]hexan-3-yl)-3,4-dihydroquinazolin-8-yl)ethyl)amino)-N-(methylsulfonyl) picolinamide] the same measures were no less than 5 µM and 0.5 to 1 µM.
On to `Cc1cc([C@@H](C)Nc2ccc(Cl)nc2C(=O)NS(C)(=O)=O)c2nc(N3C[C@@H]4[C@H](C3)[C@H]4c3nc(C)nn3C(F)F)n(C)c(=O)c2c1` [Compound 643, 6-chloro-3-(((R)-1-(2-((1R,5S,6R)-6-(1-(difluoromethyl)-3-methyl-1H-1,2,4-triazol-5-yl)-3-azabicyclo[3.1.0]hexan-3-yl)-3,6-dimethyl-4-oxo-3,4-dihydroquinazolin-8-yl)ethyl)amino)-N-(methylsulfonyl) picolinamide], for which the figures for the concentration for half-maximal inhibition (IC50) in assay [1] (setting [3]) and in assay [2] (setting [4]) were no less than 5 µM and 0.25 to 0.5 µM, respectively.
For `Cc1cc([C@@H](C)Nc2ccc(Cl)nc2C(=O)NS(C)(=O)=O)c2nc(N3CC[C@H](Nc4ncc(F)cn4)C3)n(C)c(=O)c2c1` [Compound 737, 6-chloro-3-(((R)-1-(2-((S)-3-((5-fluoropyrimidin-2-yl)amino)pyrrolidin-1-yl)-3,6-dimethyl-4-oxo-3,4-dihydroquinazolin-8-yl)ethyl)amino)-N-(methylsulfonyl) picolinamide] the same measures were no less than 5 µM and 0.25 to 0.5 µM.
For `Cc1cc([C@@H](C)Nc2ccc(Cl)nc2C(=O)NS(C)(=O)=O)c2nc(N3C[C@@H]4[C@H](C3)[C@H]4c3nn(C4CC4)cc3F)n(C)c(=O)c2c1` [Compound 569, 6-chloro-3-(((R)-1-(2-((1R,5S,6R)-6-(1-cyclopropyl-4-fluoro-1H-pyrazol-3-yl)-3-azabicyclo[3.1.0]hexan-3-yl)-3,6-dimethyl-4-oxo-3,4-dihydroquinazolin-8-yl)ethyl)amino)-N-(methylsulfonyl) picolinamide], the results for the IC50 in assay [1] (setting [3]) and in assay [2] (setting [4]) were no less than 5 µM and 0.25 to 0.5 µM, respectively.
For `Cc1cc([C@@H](C)Nc2ccc(Cl)nc2C(=O)NS(C)(=O)=O)c2nc(N3CC[C@@H](Oc4ccc(F)cn4)C3)n(C)c(=O)c2c1` [Compound 713, 6-chloro-3-(((R)-1-(2-((R)-3-((5-fluoropyridin-2-yl)oxy)pyrrolidin-1-yl)-3,6-dimethyl-4-oxo-3,4-dihydroquinazolin-8-yl)ethyl)amino)-N-(methylsulfonyl) picolinamide] the same measures were 1 to 5 µM and 0.25 to 0.5 µM.
The corresponding values for `Cc1cc([C@@H](C)Nc2ccc(Cl)nc2C(=O)NS(C)(=O)=O)c2nc(N3CCC(c4ncc(C)c(C)n4)CC3)n(C)c(=O)c2c1` [Compound 544, (R)-6-chloro-3-((1-(2-(4-(4,5-dimethylpyrimidin-2-yl)piperidin-1-yl)-3,6-dimethyl-4-oxo-3,4-dihydroquinazolin-8-yl)ethyl)amino)-N-(methylsulfonyl) picolinamide] are 1 to 5 µM and less than 0.25 µM.
The corresponding values for `Cc1cc([C@@H](C)Nc2ccc(Cl)nc2C(=O)NS(C)(=O)=O)c2nc(-c3cc4cn(C)nc4cn3)n(C)c(=O)c2c1` [Compound 839, (R)-6-chloro-3-((1-(3,6-dimethyl-2-(2-methyl-2H-pyrazolo[3,4-c]pyridin-5-yl)-4-oxo-3,4-dihydroquinazolin-8-yl)ethyl)amino)-N-(methylsulfonyl) picolinamide] are 1 to 5 µM and 0.25 to 0.5 µM.
On to `Cc1cc([C@@H](C)Nc2ccc(Cl)nc2C(=O)NS(C)(=O)=O)c2nc(N3CCN(c4ncc(C#N)cc4F)CC3)n(C)c(=O)c2c1` [Compound 262, (R)-6-chloro-3-((1-(2-(4-(5-cyano-3-fluoropyridin-2-yl)piperazin-1-yl)-3,6-dimethyl-4-oxo-3,4-dihydroquinazolin-8-yl)ethyl)amino)-N-(methylsulfonyl) picolinamide], for which the values for the IC50 in assay [1] (setting [5]) and in assay [2] (setting [6]) were 1 to 5 µM and less than 0.25 µM, respectively.
Consider `Cc1cc([C@@H](C)Nc2ccc(Cl)nc2C(=O)NS(C)(=O)=O)c2nc(N3CCC(c4nc(C)nn4C)CC3)n(C)c(=O)c2c1` [Compound 523, (R)-6-chloro-3-((1-(2-(4-(1,3-dimethyl-1H-1,2,4-triazol-5-yl)piperidin-1-yl)-3,6-dimethyl-4-oxo-3,4-dihydroquinazolin-8-yl)ethyl)amino)-N-(methylsulfonyl) picolinamide], for which the figures for the IC50 in assay [1] (setting [3]) and in assay [2] (setting [4]) were no less than 5 µM and 0.25 to 0.5 µM, respectively.
Turning to `CO[C@H]1C[C@@H](S(=O)(=O)NC(=O)c2nc(Cl)ccc2N[C@H](C)c2cc(C)cc3c(=O)n(C)c(N4Cc5ccc(F)cc5C4)nc23)C1` [Compound 378, 6-chloro-3-(((R)-1-(2-(5-fluoroisoindolin-2-yl)-3,6-dimethyl-4-oxo-3,4-dihydroquinazolin-8-yl)ethyl)amino)-N-(((1s,3S)-3-methoxycyclobutyl)sulfonyl)picolinamide], the IC50 in assay [1] (setting [5]) is no less than 5 µM; in assay [2] (setting [6]), 0.25 to 0.5 µM.
The corresponding values for `Cc1cc([C@@H](C)Nc2ccc(Cl)nc2C(=O)NS(C)(=O)=O)c2nc(N3C[C@@H]4[C@H](C3)[C@H]4c3nn(C)cc3Cl)n(C)c(=O)c2c1` [Compound 401, 6-chloro-3-(((R)-1-(2-((1R,5S,6R)-6-(4-chloro-1-methyl-1H-pyrazol-3-yl)-3-azabicyclo[3.1.0]hexan-3-yl)-3,6-dimethyl-4-oxo-3,4-dihydroquinazolin-8-yl)ethyl)amino)-N-(methylsulfonyl) picolinamide] are no less than 5 µM and 0.25 to 0.5 µM.
As for `Cc1cc([C@@H](C)Nc2ccc(Cl)nc2C(=O)NS(C)(=O)=O)c2nc(N3CCC[C@@H](c4cnn(C)c4)C3)n(C)c(=O)c2c1` (relative stereo) [Compound 202, 6-chloro-3-(((R)-1-(3,6-dimethyl-2-((R*)-3-(1-methyl-1H-pyrazol-4-yl)piperidin-1-yl)-4-oxo-3,4-dihydroquinazolin-8-yl)ethyl)amino)-N-(methylsulfonyl) picolinamide], the IC50 was 1 to 5 µM in assay [1] (setting [5]) and less than 0.25 µM in assay [2] (setting [6]).
